Assay results as given in patent publication US20230310390A1, “INHIBITORS OF SHORT-CHAIN DEHYDROGENASE ACTIVITY FOR TREATING NEURODEGENERATION” (CASE WESTERN RESERVE UNIVERSITY, priority 2020, published 2023).
Entries after “also recorded” stand apart in the source; their conditions may differ.

Legend:
Assay type in all cases: in vivo
[1] = biological target: T1, 15-PGDH (Mus musculus, UniProt Q8VCC1); experiment: 15-PGDH activity in whole brain of 5×FAD and WT mice; conditions: 5 mg/kg/day twice daily from 2 to 6 months of age
T1 construct: brain tissue was dissected 3 weeks later for biochemical determination of 15-PGDH enzymatic activity; from tissue; host or cells: mouse brain (forebrain after TBI; whole brain of 5xFAD and WT littermates)
T1 sequence (Q8VCC1 1-269): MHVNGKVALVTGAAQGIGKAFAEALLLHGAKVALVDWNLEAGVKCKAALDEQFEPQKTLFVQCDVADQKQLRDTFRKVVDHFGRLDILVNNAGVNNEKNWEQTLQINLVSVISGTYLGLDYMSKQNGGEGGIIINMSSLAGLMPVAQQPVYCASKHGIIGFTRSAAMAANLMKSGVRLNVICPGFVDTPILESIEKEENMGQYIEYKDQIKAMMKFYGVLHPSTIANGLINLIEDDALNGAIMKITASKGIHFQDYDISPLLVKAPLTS
Description: (§1) (A) 8 week old 15-PGDH wild-type (Hpgd^+/+) and 15-PGDH knockout (Hpgd^−/−) mice were subjected to TBI, and brain tissue was dissected 2 weeks later for western blot. […] Individual human data points are shown on the graph. Data was analyzed with Student's t test. * p<0.05. All data is mean±SEM. (C) Hpgd^+/+ mice were subjected to TBI at 8 weeks of age and then brain tissue was dissected 3 weeks later for biochemical determination of 15-PGDH enzymatic activity. […] Individual mouse data points are shown on the graph. Data was analyzed with Student's t test. ** p<0.01, **** p<0.0001. All data is mean±SEM. (D) 5×FAD mice and wild type littermates (WT) were administered either 5 mg/kg/day (+)-SW033291 twice daily (or vehicle) from 2 to 6 months of age, and then brains were dissected for biochemical assessment of 15-PGDH activity. […] Individual mouse data points are shown on the graph. Data was analyzed using two-way repeated measures ANOVA; * p<0.05, ** p<0.01, *** p<0.001. All data is mean±SEM.

[2] = biological target: T1, 15-PGDH; experiment: 15-PGDH enzymatic activity in forebrain after TBI; conditions: Hpgd+/+ mice, 3 weeks after TBI, 5 mg/kg started 24 hours after injury
Description: as §1

[3] = tested on: 5×FAD mice; experiment: Blood-brain barrier integrity by transmission electron microscopy
Description: BBB integrity was analyzed using transmission electron microscopy (TEM) in 6 month old 5×FAD mice. […] Mice were treated with 5 mg/kg/day (+)-SW033291 (or vehicle) every day from 2 to 6 months of age, and then sacrificed for TEM analysis. Individual mouse data points are shown on the graph. Data was analyzed using one-way ANOVA; * p<0.05, ** p<0.01, *** p<0.001. All data is mean±SEM.

[4] = tested on: 5×FAD mice; experiment: Morris water maze in 5×FAD mice; conditions: 5 mg/kg/day twice daily from 2 to 6 months
Description: (A) Experimental Timeline: Two month old 5×FAD and wild type (WT) littermates were treated with 5 mg/kg/day twice daily (+)-SW033291 (or vehicle) every day from 2 to 6 months. Cognitive performance was tested using Morris water maze (MWM) as shown in the timeline. (B) Animals were trained to find the hidden platform in the MWM maze for 3 consecutive days (4 trials/day), and latency to find the hidden platform was measured. […] (C) To probe for spatial memory of the hidden platform, one day after the last learning day the animals were tested in the same MWM, except the platform was removed. Memory was measured as latency to first cross the area where the platform was located and the number of times an animal crossed that area. […] Individual mouse data points are shown on the graph. Data was analyzed using two-way repeated measures ANOVA; * p<0.05, ** p<0.01, *** p<0.001. All data is mean±SEM.

[5] = tested on: 5×FAD mice; experiment: Amyloid plaque accumulation (Congo Red staining); conditions: 5 mg/kg/day twice daily from 2 to 6 months
Description: (§2) Two month old 5×FAD and wild type (WT) littermates were treated with 5 mg/kg/day twice daily (+)-SW033291 (or vehicle) every day from 2 to 6 months. At 5 months of age, mice were injected with a single dose of 150 mg/kg bromodeoxyuridine (BrdU) to label replicating cells. At the age of 6 months (28 days after BrdU) mice were transcardially perfused and brains were dissected for examination of fixed tissue. […] Individual mouse data points are shown on the graph. Data was analyzed using two-way repeated measures ANOVA; * p<0.05, ** p<0.01, ***p<0.001, ****p<0.0001. All data is mean±SEM.

[6] = tested on: 5×FAD and wild type (WT) mice; experiment: BrdU staining, survival of newborn hippocampal neurons; conditions: 5 mg/kg/day twice daily from 2 to 6 months; for survival of newborn hippocampal neurons (BrdU): 28 days after BrdU
Description: as §2

[7] = tested on: eicosanoids; experiment: Eicosanoid profiling by LC-MS/MS, right brain hemisphere of wild-type and 5×FAD mice; conditions: 5 mk/kg twice daily for 4 weeks
Description: Eicosanoids were measured by methods of liquid chromatography with tandem mass spectrometry with the use of spiked in deuterated internal standards. Eicosanoids measured included: the 6-keto-PGF1 alpha (6-keto-PGF1a, a hydrolysis product of and proxy for prostacyclin), thromboxane B2 (TXB2, a metabolite/product of and proxy for thromboxane A2), PGD2, PGE2, 15-keto-PGE2 (produced by 15-PGDH degradation of PGE2), tetranor PGE1 (TN-E, a metabolic product produced by beta-oxidation of PGE2), PGJ2, PGF2 alpha (PGF2a), LTB4, 15-HETE, 12-HETE, 8-HETE, 5-HETE, 17-HDHA, 12,13-DiHOME, 14,15-DHET, 11,12-DHET.
FIG. 3 illustrates graphs showing comparison of eicosanoid values in brain of 6 month old male mice that are either wild-type or that are the 5×FAD strain of mice that model Alzheimer's disease. Beginning at 5 months of age both genotypes of mice were injected twice daily with either 5 mk/kg (+)-SW033291 or with matched vehicle control as described in Zhang et al. Science. 2015; 348(6240):aaa2340. PMCID: PMC4481126. Treatment continued twice daily for 4 weeks. Mice were sacrificed at 3 hours following their final injection. After sacrifice the right hemisphere of the brain was dissected, flash frozen, and powdered, and eicosanoids were extracted in aqueous buffer for analysis. Protein concentration of the extracts were assayed, and eicosanoid values were recorded as ng eicosanoid per mg protein.

[8] = 6 month old 5×FAD mice, 5 mg/kg/day from 2 to 6 months of age, TEM
[9] = wild-type mice, compared to vehicle treated wild-type mice

SMILES: CCCC[S+]([O-])c1sc2nc(-c3cccs3)cc(-c3ccccc3)c2c1N (single isomer, unassigned; (+)) [(+)-SW033291]
- 15-PGDH activity in the whole brain ([1]; 5×FAD mice, compared to 5×FAD vehicle, 5 mg/kg/day): significantly lowered 15-PGDH activity in the whole brain; also recorded: returned to normal
- 15-PGDH activity in the whole brain ([1]; WT mice, compared to WT vehicle): significantly lowered 15-PGDH activity in the whole brain
- 15-PGDH enzymatic activity in the forebrain [2]: restored to normal; also recorded: returned to normal
- blood-brain barrier (BBB) protection ([3]; 5×FAD mice): protects the blood-brain barrier (BBB) in 5×FAD mice
- disruption of astrocyte end feet that envelope the BBB [3, 8]: prevented this disruption
- enlargement of the perivascular space [3, 8]: prevented this disruption
- average (escape) latency to find the hidden platform (learning) ([4]; 5×FAD and WT mice, 3 consecutive days): not different between groups
- memory deficit / cognitive function (MWM probe) ([4]; 5×FAD mice, 5 mg/kg/day): alleviated this deficit
- memory deficit / cognitive function (MWM probe) ([4]; 5×FAD mice, listed as (+)-SW033921, 5 mg/kg/day): protects cognitive function in 5×FAD mice
- number of platform crosses ([4]; MWM probe test, 5×FAD mice): significantly decreased in the vehicle-treated 5×FAD group compared to the other groups
- amyloid plaque accumulation (Congo Red staining) [5]: does not alter amyloid plaque accumulation; also recorded: does not affect accumulation of amyloid plaque
- survival of young hippocampal neurons relative to WT-vehicle mice ([6]; 5×FAD mice): comparable extent as WT-vehicle mice
- survival of newborn hippocampal neurons (BrdU) ([6]; 5×FAD mice, 5 mg/kg/day): augments the survival of newborn hippocampal neurons
- survival of newborn hippocampal neurons (BrdU) ([6]; WT mice): augments the survival of newborn hippocampal neurons
- eicosanoid values in right hemisphere of the brain (trends) ([7]; 5×FAD mice, versus vehicle control treated 5×FAD mice): a trend to increased 15-keto-PGE2, TN-E, PGF2a, 12,13-DiHOME, and 11,12-DHET
- 6-keto-PGF1a, PGE2 in right hemisphere of the brain [7, 9]: significant increase in 6-keto-PGF1a, PGE2
- eicosanoid values in right hemisphere of the brain (trends) [7, 9]: a trend to increased TXB2, PGD2, 15-keto-PGE2, TN-E, PGJ2, PGF2a, LTB4, 15-HETE, 12-HETE, 8-HETE, 17-HDHA, 9,10-DiHOME, 14,15-DHET
